Reference: article PMC9068900, “Pharmacology of Kappa Opioid Receptors: Novel Assays and Ligands” (Frontiers in Pharmacology, 2022)
Values joined by “and” are separate entries in the source; they are usually repeats but may differ in a detail not shown here. Identical values can stand only once. Like-named read-outs stand apart in the source and are kept apart here. Non-standard residues stand in square brackets, D forms with d. Residues, ends and D or L forms follow the SMILES beside them. Dmt = Cc1cc(O)cc(C)c1C[C@H](N)C(=O)O; Tic = O=C(O)[C@@H]1Cc2ccccc2CN1

Assays:
[1] = target: T1, human kappa opioid receptor (Homo sapiens, UniProt P41145); assay: biochemical; format: biochemical; parameters: 13-mer linker peptide […]; expressed in transfected cells; enriched plasma membranes used
[2] = target: T1, human kappa opioid receptor; assay: Calcium mobilization in CHO cells co-expressing the kappa receptor and Gαqi5; format: cell-based; parameters: expressed in transfected cells
[3] = system: kappa opioid receptor; details: ref Simonin et al., 1995; cited from earlier work
[4] = system: kappa opioid receptor; parameters: method as in Zhu et al., 1997; Birch et al., 1987; details: ref Zhu et al., 1997; Birch et al., 1987; cited from earlier work
[5] = target: T1, human kappa opioid receptor; assay: Dynamic mass redistribution (DMR) label-free assay in CHO cells; format: cell-based; parameters: expressed in transfected cells
Method: DMR experiments were conducted as previously described ([Malfacini et al., 2018]). Chinese Hamster Ovary (CHO) cells stably expressing the human kappa receptor were kindly provided by L Toll (Torrey Pines Institute for Molecular Studies, Port St. Lucie, United States). Cells were cultured in Dulbecco’s Modified Eagle Medium: Nutrient Mixture F-12 (DMEM/F12) supplemented with 10% (v/v) Fetal Calf Serum (FCS), 100 U/ml penicillin, 100 μg/ml streptomycin, 2 mM L-glutamine, 15 mM HEPES. The medium was supplemented with 400 μg/ml G418 to maintain expression. Cells were seeded at a density of 45,000 cells/well in 120 μL into fibronectin-coated EnspireTM-LC 96-wells plates and cultured for 20 h to form a confluent monolayer. On the day of the experiment, cells were washed twice and maintained with assay buffer: HBSS with 20 mM HEPES, 0.01% BSA fraction V; for 90 min before the experiment. DMR was monitored in real-time with a temporal resolution of 44 s throughout the assay. Experiments were performed at 37°C, using an EnSight Multimode Plate Reader (PerkinElmer). A 5 min baseline was first established, followed by adding compounds manually in a volume of 40 μL and recording compound-triggered DMR signal for 60 min. In antagonism experiments, ligands tested as antagonists were added 30 min before agonist administration. Maximum picometers (pm) modification (peak) were used to determine agonist response after baseline normalization.
The pharmacological terminology is consistent with the International Union of Basic and Clinical Pharmacology (IUPHAR) recommendations ([Neubig et al., 2003]). Concentration-response curves to agonists were fitted to the four-parameter logistic nonlinear regression model as follows: Effect=Basal+ Emax−Basal/1+10^ (LogEC50−Log[ligand]) × HillSlope
If unsurmountable antagonist behavior was detected, the pKB value was derived as follows: a double-reciprocal plot of equi-effective concentrations of agonist (A) in the absence (1/A) and presence (1/A’) of the antagonist (B) was constructed and pKB was derived from the equation pKB = log {(slope-1)/[B]} ([Kenakin, 2009]).

[6] = target: T1, human kappa opioid receptor; assay: BRET kappa-β-arrestin 2 interaction, SH-SY5Y whole cells; format: cell-based; parameters: 13-mer linker peptide […]; expressed in transfected cells; enriched plasma membranes used
[7] = system: rabbit jejunum; parameters: method as in Guerrini et al., 1998; details: ref Guerrini et al., 1998; cited from earlier work
[8] = system: kappa opioid receptor; parameters: method as in Guerrini et al., 1998; details: ref Guerrini et al., 1998; cited from earlier work
[9] = system: guinea pig ileum; parameters: method as in Guerrini et al., 1998; details: ref Guerrini et al., 1998; cited from earlier work

T1 sequence (P41145 whole entry): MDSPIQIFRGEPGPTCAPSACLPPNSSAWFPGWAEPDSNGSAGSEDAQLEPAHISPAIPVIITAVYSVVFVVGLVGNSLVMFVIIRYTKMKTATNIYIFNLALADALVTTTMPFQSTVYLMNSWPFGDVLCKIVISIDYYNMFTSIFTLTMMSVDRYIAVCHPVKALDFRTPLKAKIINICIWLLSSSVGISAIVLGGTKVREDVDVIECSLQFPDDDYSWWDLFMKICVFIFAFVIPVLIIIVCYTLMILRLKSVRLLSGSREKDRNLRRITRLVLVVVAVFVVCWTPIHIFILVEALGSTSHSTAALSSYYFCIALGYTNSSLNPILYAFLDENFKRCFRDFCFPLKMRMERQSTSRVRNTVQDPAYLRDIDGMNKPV

## Oc1ccc2c3c1O[C@H]1c4[nH]c5c(c4C[C@@]4(O)[C@@H](C2)N(CC2CC2)CC[C@]314)C[C@@]1(O)[C@H]2Cc3ccc(O)c4c3[C@@]1(CCN2CC1CC1)[C@H]5O4 [Nor-BNI, Nor-Binaltorphimine]
[1]; 5 min, fraction of Dyn A maximal effect
  Emax ± sem: inactive
[1]; 5 min after compound addition
  pEC50 (CL95%): inactive
[2]; CHO cells, human kappa + Gαqi5
  Calcium Mobilization pEC50 (CL95%): inactive
  Calcium Mobilization α (intrinsic activity: maximal effect divided by that of Dyn A): inactive
[2]; tested as agonist
  Stimulation of calcium flux (in words): completely inactive
[3]
  Affinity: approximately 1 nM
[4]
  Potency: 0.1 nM
[5]; CHO cells, human kappa
  DMR pEC50 (CL95%): inactive
[5]; relative to Dyn A
  DMR α: inactive
[5]; tested as agonist
  Effect on DMR baseline (in words): did not modify DMR baseline
[6]; SH-SY5Y cells, kappa-RLuc/β-arrestin 2-RGFP
  BRET β-Arrestin 2 pEC50 (CL95%): inactive
[6]; relative to Dyn A
  BRET β-Arrestin 2 α: inactive

## CC[C@H](C)[C@H](NC(=O)[C@H](CCCNC(=N)N)NC(=O)[C@H](CCCNC(=N)N)NC(=O)[C@H](CC(C)C)NC(=O)[C@H](Cc1ccccc1)NC(=O)CNC(=O)[C@@H]1Cc2ccccc2CN1C(=O)[C@@H](N)Cc1c(C)cc(O)cc1C)C(=O)N[C@@H](CCCNC(=N)N)C(=O)N1CCC[C@H]1C(=O)N[C@@H](CCCCN)C(N)=O [[Dmt^1,Tic^2], [Dmt^1,Tic^2]Dyn(1-11)-NH2] (H-[Dmt][Tic]GFLRRIRPK-NH2; N-terminus assumed)
[7]
  Antagonist potency: 8 nM
[1]
  BRET G Protein pA2 (CL95%): 7.5
  BRET G Protein pEC50 (CL95%): 6.95 (6.14–7.75)
  BRET G Protein α: 0.35
  Emax ± sem: 0.30 ± 0.02 and 0.35 ± 0.06
  pEC50 (CL95%): 7.09
[1]; sh-sy5y cell membranes
  BRET G Protein pA2 (CL95%): 7.5 (5.35–9.65)
[8]
  Affinity at the mu opioid receptor relative to kappa (in words): equal affinity
  Affinity values: 3.3—4.3 nM
  Higher affinity at the delta opioid receptor: 10 fold
[2]
  Calcium Mobilization pA2 (CL95%): 6.6
  Calcium Mobilization pEC50 (CL95%): ∼6.9
  Calcium Mobilization α (intrinsic activity: maximal effect divided by that of Dyn A): 0.15
  Increase of calcium levels: 50 % over the baseline
[2]; cho cells
  Calcium Mobilization pA2 (CL95%): 6.6 (6.16–7.14)
[9]
  Antagonist potency: 90 nM
[5]
  DMR pA2 (CL95%): 7.7
  DMR pEC50 (CL95%): 7.11 (5.61–8.61)
  DMR α: 0.47
  Effect on DMR baseline (in words): slightly stimulated the DMR response only at micromolar concentrations
[5]; cho cells
  DMR pA2 (CL95%): 7.7 (7.11–8.29)
[6]
  BRET β-Arrestin 2 pA2 (CL95%): 7.3
  BRET β-Arrestin 2 pEC50 (CL95%): inactive
  BRET β-Arrestin 2 α: inactive
  Residual agonist activity (in words): did not show any residual agonist activity
[6]; sh-sy5y cells
  BRET β-Arrestin 2 pA2 (CL95%): 7.3 (6.5–8.1)
